Data taken from the NIST ThermoML archive (doi:10.1016/j.fluid.2007.06.008).
Numbers after ± are expanded uncertainties.

Experiments:
[1] = Liquid; for mass density: 101.33 kPa; for Normal boiling temperature: Ebulliometric method (Recirculating still)
[2] = refractive index (Na D-line) (dimensionless); details: 298.15 K; 101.33 kPa; Liquid; Standard Abbe refractometry

Structure (SMILES) | mass density ([1]; 303.15 K) [kg/m3] | Normal boiling temperature [1] [°C] | refractive index [2] | mass density ([1]; 298.15 K) [kg/m3]
CC(C)(C)O [2-methylpropan-2-ol] | 775.4 ± 0.66 | 82.18 ± 0.1 | 1.3851 ± 0.0005 | –
CCC(C)CC [3-methylpentane] | – | 63.2 ± 0.1 | 1.3744 ± 0.0005 | 659.62 ± 1.4
CCO [ethanol] | – | 78.26 ± 0.1 | 1.3598 ± 0.0007 | 785.04 ± 0.5
CC1CCCCC1 [methylcyclohexane] | – | 100.81 ± 0.1 | 1.4208 ± 0.0005 | 764.92 ± 1.1
